pIC50: −log10 of the molar value. “Also recorded” adds a separate entry of the source. Read-outs that look alike come from different tables or passages of the source.
Tests used:
[1] = system: human MPNST cell line S462; assay: S462 cell viability (CellTiter-Glo, 72 h); format: cell-based; conditions: for pIC50: read-out: IC50
Excerpt: This similarity, in addition to the scaffold's particular sensitivity to modifications around the pyridinyl ring led us to hypothesize that the activity of compounds 1 and 9 may depend on the concentration of Nam in the media. To test this hypothesis, we analyzed the activity of both compounds in media supplemented with increasing concentrations of Nam. […] Given that Nam inhibited compound activity, we considered Nam concentrations in basal culture conditions (DMEM supplemented with 10% fetal bovine serum or FBS) as compared to physiological levels. Nam levels in human serum are estimated to be in the 4 μM range.^5 In contrast, DMEM alone contains […] of Nam and the concentration in 10% FBS is expected to range between 0.574-1.56 μM.^6 To more closely reflect physiologic levels of Nam, we evaluated the activity of these compounds in cells grown in DMEM lacking Nam (Nam-free DMEM), so that the only exogenous Nam derives from 10% FBS. […] These observations indicate that the potency of these compounds is in the nanomolar range when tested in the presence of physiological levels of Nam.
We thus re-assessed the structure activity relationship of compound 21 analogs in Nam-free DMEM supplemented with or without 100 μM Nam (see appendix below: Synthesis, characterization and activity of micromolar and nanomolar active nicotinamide derivatives). […] Particularly notable, even in Nam-depleted conditions, all active analogs retained the same 3-pyridinyl ring as Nam, reinforcing the relationship between structural resemblance to Nam and compound efficacy.
(§1) In 96-well assay plates (Corning #2903), 2,000 cells were plated per well in 100 μL of medium and allowed to adhere overnight. The next day, compounds or Nam suspended in DMSO were dispensed to the assayed wells using a D300e Digital Dispenser (Tecan). All wells were normalized to 0.5% DMSO. 72 hours after incubation at 37 °C in 5% CO2, cell viability was assayed using an ATP-based luminescent viability assay, CellTiter-Glo (Promega #G8462). CellTiter-Glo substrate was mixed 1:1 with phosphate-buffered saline (PBS) supplemented with 1% Triton X-100, and 40 μL of this mixture was added to the assay wells. After the plates were shaken on a microplate shaker for 10 minutes at room temperature, luminescence was recorded using a Synergy 2 Microplate Reader or Cytation 5 plate reader (BioTek). In Prism 9 software (GraphPad), ten-point dose response curves were plotted with baseline-correction to the vehicle control well, and IC50 values were calculated by curve fitting using asymmetric (five parameter), least squares fit.

[2] = system: NMNAT1 or alcohol dehydrogenase; assay: Counter screen with NMN in place of NAM; format: biochemical; conditions: role: inhibitor; 50 μM NMN substituted for NAM
Method: NAMPT activity was measured using a coupled-enzyme assay previously described [Revollo, 2014]. Briefly, reactions consisting of 50 mM Tris pH 8, 0.4 mM PRPP, 2.5 mM ATP, 12 mM MgCl2, 0.02% BSA, 1 μM NAMPT, 77 nM NMNAT1, 10 mM semicarbazide, 30 μg/ml alcohol dehydrogenase were set up in a 384-well plate (50 μl/well). […] The reactions were started by addition of 50 μM NAM. Fluorescence due to NADH formation by alcohol dehydrogenase was measured in a BioTek Cytation 5 plate reader (Agilent, USA) set up for excitation at λ=340 nm and detection of emission at λ=460 nm. To counter screen for NMNAT1 or alcohol dehydrogenase inhibition, the assay was set up above but substituting 50 μM NMN (substrate for NMNAT1) for NAM. No inhibition of was observed under these conditions.

[3] = system: mouse and human MPNST cell lines; conditions: cited from earlier work
[4] = mice; dosed orally (b5); listed as compound 21; cited from earlier work
iHCT116 cells = assay: iHCT116 cell viability with or without ectopic NMNAT1 expression; format: cell-based
Excerpt: Second, we screened for resistance to 9 in iHCT116 cells, a system that uses inducible mutagenesis and forward genetics to find compound-resistant mutations and thus can reveal both loss of function and gain of function alleles that suppress activity. The iHCT116 system is a barcoded cell line in which we temporally control mutagenesis by the addition of indole acetic acid (IAA) mediated degradation of the mismatch repair protein MLH1.^12 MLN4924 is a small molecule toxin that we use as a positive control to verify that IAA treatment leads to increased mutations. By degrading MLH1 and increasing the overall mutation rate, IAA treatment increases the frequency of UBA3 mutations, leading to a higher rate of MLN4924 resistance. […] Having previously established a relationship between either NMNAT1 levels or NAMPT activity and compound resistance, we analyzed the levels of both enzymes in multiple resistant clones that harbored unique barcode sequences. […] To test whether reduced NMNAT1 levels in these clones contributed to resistance, we ectopically expressed NMNAT1 in either the parental cells or a representative resistant clone with low NMNAT1 expression.
as §1

[5] = system: Cas9-expressing HCT116 cells; assay: Genome-wide pooled CRISPR/Cas9 knockout screen in HCT116; format: cell-based, human
Excerpt: To gain insight into the mechanism of 9 and the relevance of Nam, we pursued two independent and complementary unbiased genetic approaches. First, we performed a genome-wide pooled Clustered Regularly Interspaced Short Palindromic Repeats (CRISPR) and CRISPR-associated protein 9 (Cas9) knockout screen to identify genes whose loss of function can enhance or suppress compound 9 activity. […] We cultured Cas9-expressing HCT116 cells in 10% FBS Nam-free DMEM and transduced with a lentiviral single guide RNA (sgRNA) library designed to silence 19,114 human genes.^11 These cells were treated with either vehicle (DMSO) or 9 for 30 days by which time the 9-treated cells had 7.6 fewer population doublings. Then, relative sgRNA sequences in the resulting cells were determined by massively parallel sequencing of PCR products amplified from genomic DNA, and the relative impact of each gene was derived from the sgRNA reads.
These observations, taken together, support the hypothesis that the activity of compound 9 depends on NAMPT and NMNAT1.

[6] = Nam titration experiment, media without added Nam
[7] = S462, commercial DMEM, highest dose tested 50 μM
[8] = addition of 100 μM exogenous Nam

## O=C(Nc1cccnc1)c1cccs1 [Compound 1, N-(pyridin-3-yl)thiophene-2-carboxamide]
[1]; [6]
  pIC50: 5.71
[1]; [7]
  pIC50: 5.85
[1]; [8]
  pIC50: 5.16
[1]; addition of 1 mM exogenous Nam
  pIC50: 4.49
[2]
  inhibition in counter screen: No inhibition
[3]
  toxicity to MPNST cell lines: selectively toxic
[4]
  bioavailability: bioavailable when dosed orally; also recorded: bioavailable in mice

## O=C(Nc1cccs1)c1cccnc1 [Compound 9, N-(Thiophen-2-yl)nicotinamide]
[1]; 10% FBS Nam-free DMEM
  toxicity to S462: toxic to S462
[1]; 10% FBS Nam-free DMEM, comparison of vacor, 3-AP, tiazofurin and 9
  rescue by nicotinamide: rescued by nicotinamide
[1]; 10% FBS Nam-free DMEM, versus 3-AP
  IC50 of 9 less than 3-AP: 1823 fold
[1]; 10% FBS Nam-free DMEM, versus tiazofurin
  IC50 of 9 less than tiazofurin: 477 fold
[1]; 10% FBS Nam-free DMEM, versus vacor
  IC50 of 9 less than vacor: 206 fold
[1]; [6]
  pIC50: 6.07
[1]; Nam-free DMEM versus basal medium
  potency increase in Nam-free DMEM: 92 fold
[1]; Nam-free DMEM with 10% FBS
  pIC50: 8.04
[1]; Nam-free DMEM, addition of 1.4 μM Nam
  pIC50: 7.29
[1]; Nam-free DMEM, addition of 37 μM Nam
  pIC50: 5.74
[1]; [7]
  pIC50: 5.92
[1]; S462, three independent NMNAT1 sgRNAs
  average increase in IC50 on NMNAT1 knockout: 28.5 fold
[1]; [8]
  pIC50: 5.37
[1]; addition of 1 mM exogenous Nam
  pIC50: 4.45
iHCT116 cells; parental iHCT116
  decrease in IC50 on ectopic NMNAT1 expression: 1.85 fold
iHCT116 cells; parental iHCT116, NMNAT1-expression
  pIC50: 7.57
iHCT116 cells; parental iHCT116, mock-infected
  pIC50: 7.30
iHCT116 cells; representative resistant clone with low NMNAT1 expression
  pIC50: 6.24
iHCT116 cells; resistant clone
  decrease in IC50 on ectopic NMNAT1 expression: 9.58 fold
iHCT116 cells; resistant clone with ectopic NMNAT1 expression
  pIC50: 7.22
[2]
  inhibition in counter screen: No inhibition
[5]; 9-treated cells, 30 days
  enrichment of sgRNA reads for NAMPT: 2.1 fold
  increase in sgRNA reads targeting NMNAT1: 5.2 fold
[5]; 9-treated versus vehicle, 30 days
  fewer population doublings: 7.6 population doublings
[5]; out of 19,114 genes
  rank of NAMPT among enriched genes: 101
